In patent US8536187B2 (Gilead Sciences, Inc., priority 2008, dated 2013):

Experiments:
[1] = tested on: HCV replicon in human hepatoma Huh-7 cell line; experiment: Anti-HCV replicon assay, EC50 (luciferase luminescence); assay type: cell-based; conditions: Hepatitis C virus, Huh-7, 72 h
In short: (§1)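 Cytotoxicity (CC50) read by CellTiter-Glo luminescence after 10 min, and antiviral EC50 by luciferase signal after 30 min lysis with substrate, both at room temperature. Preceding step: 3-day exposure of 6000 Huh-7 HCV replicon cells per well to compound dilution series at 37° C, 5% CO2, in 0.5% DMSO.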

[2] = CC50 assay (CellTiter-Glo) in Huh-7 HCV replicon cells; assay type: cell-based; conditions: human
In short: as §1

Row | SMILES | EC50 [1] [nM] | CC50 at 3 days ([2]; Table 2, 3 days incubation) [nM] | CC50 at 3 days ([2]; Table 1, 3 days incubation) [nM]
1 | C[C@H](Nc1nc(NCc2ccc(-n3cncn3)cc2)nc2ccc(C#CC3CC3)nc12)C(F)(F)F [Example 292, (S)-N^2-(4-(1H-1,2,4-triazol-1-yl)benzyl)-6-(2-cyclopropyl-ethynyl)-N^4-(1,1,1-trifluoro-propan-2-yl)pyrido[3,2-d] pyrimidine-2,4-diamine] | 250 to 2000 | > 10000 | 
2 | COc1ccc(-c2ccc3nc(NC(C)c4cc(F)cc(F)c4)nc(NCC(F)(F)F)c3n2)cc1S(N)(=O)=O (stereo not shown) [Example 235, 5-(2-(1-(3,5-difluorophenyl)ethylamino)-4-(2,2,2-trifluoroethylamino)pyrido [3,2-d]pyrimidin-6-yl)-2-methoxybenzenesulfonamide] | 100 to 250 | 1000 to 10000 | 
3 | CS(=O)(=O)c1cccc(-c2ccc3nc(NCc4ccc(-n5cccn5)cc4)nc(NCC(F)(F)F)c3n2)c1 [Example 167, N^2-(4-(1H-pyrazol-1-yl)benzyl)-6-(3-(methylsulfonyl)phenyl)-N^4-(2,2,2-trifluoroethyl)pyrido [3,2-d]pyrimidine-2,4-diamine] | < 100 | > 10000 | 
4 | NS(=O)(=O)c1cc(F)cc(CNc2nc(NC3(C(F)(F)F)CC3)c3nc(-c4ccc(F)nc4)ccc3n2)c1 [Example 77, 3-fluoro-5-((6-(6-fluoropyridin-3-yl)-4-(1-(trifluoromethyl)cyclopropylamino)pyrido[3,2-d]pyrimidin-2-ylamino)methyl) benzenesulfonamide] | < 100 | > 10000 | 
5 | CS(=O)(=O)c1cccc(-c2ccc3nc(NCc4cccc(-n5cncn5)c4)nc(NCC(F)(F)F)c3n2)c1 [Example 16, 6-(3-Methanesulfonyl-phenyl)-N2-(3-[1,2,4]-triazol-1-yl-benzyl)-N4-(2,2,2-trifluoro-ethyl)-pyrido[3,2-d]pyrimidine-2,4-diamine] | < 100 |  | > 25000
6 | CS(=O)(=O)c1cccc(-c2ccc3nc(NCc4ccc(-n5cncn5)cc4)nc(NCC(F)(F)Cl)c3n2)c1 [Example 196, N^2-(4-(1H-1,2,4-triazol-1-yl)benzyl)-N^4-(2-chloro-2,2-difluoroethyl)-6-(3-(methylsulfonyl)phenyl)pyrido [3,2-d]pyrimidine-2,4-diamine] | < 100 | > 10000 | 
7 | Cc1ccc(-c2ccc3nc(NCc4ccc(-n5cncn5)cc4)nc(NCC(F)(F)F)c3n2)cc1S(C)(=O)=O [Example 179, N^2-(4-(1H-1,2,4-triazol-1-yl)benzyl)-6-(4-methyl-3-(methylsulfonyl)phenyl)-N^4-(2,2,2-trifluoroethyl)pyrido [3,2-d]pyrimidine-2,4-diamine] | < 100 | > 10000 | 
8 | COc1ccc(-c2ccc3nc(NCc4ccc(S(N)(=O)=O)cc4)nc(NCC(F)(F)F)c3n2)cc1S(N)(=O)=O [Example 225, 4-((6-(4-methoxy-3-(aminosulfonyl)phenyl)-4-(2,2,2-trifluoroethylamino)pyrido[3,2-d]pyrimidin-2-ylamino)methyl)benzene-sulfonamide] | < 100 | > 10000 | 
9 | c1ncn(-c2ccc(CNc3nc(OC4CC4)c4nc(-c5cnc(OC6CC6)nc5)ccc4n3)cc2)n1 [Example 254, N-(4-(1H-1,2,4-triazol-1-yl)benzyl)-4-cyclopropoxy-6-(2-cyclopropoxypyrimidin-5-yl)pyrido[3,2-d]pyrimidin-2-amine] | < 100 | > 10000 | 
10 | COCc1ccc(-c2ccc3nc(NCc4ccc(S(N)(=O)=O)cc4)nc(NC4(C(F)(F)F)CC4)c3n2)cc1S(C)(=O)=O [Example 30, 4-{[6-(3-methanesulfonyl-4-methoxymethylphenyl)-4-(1-trifluoromethyl-cyclopropylamino)-pyrido[3,2-d]pyrimidin-2-ylamino]-methyl}-benzenesulfonamide] | < 100 | > 10000 | 
11 | COc1ccc(-c2ccc3nc(NCc4cccc(-n5cncn5)c4)nc(NCC(F)(F)F)c3n2)cc1S(C)(=O)=O [Example 20] | < 100 |  | > 25000
12 | COc1ccc(-c2ccc3nc(NCc4cc(C(F)(F)F)cc(S(N)(=O)=O)c4)nc(NCC(F)(F)F)c3n2)cc1S(C)(=O)=O [Example 141, 3-((6-(4-methoxy-3-(methylsulfonyl)phenyl)-4-(2,2,2-trifluoroethylamino)pyrido[3,2-d]pyrimidin-2-ylamino)methyl)-5-(trifluoromethyl)benzene-sulfonamide] | < 100 | > 10000 | 
13 | CS(=O)(=O)c1cccc(-c2ccc3nc(NCc4ccc(S(N)(=O)=O)cc4)nc(NCC(F)(F)F)c3n2)c1 [Example 15, 4-{[6-(3-Methanesulfonyl-phenyl)-4-(2,2,2-trifluoro-ethylamino)-pyrido[3,2-d]pyrimidin-2-ylamino]-methyl}-benzenesulfonamide] | < 100 |  | > 25000
14 | CC1(Oc2nc(NCc3ccc(-n4cncn4)cc3)nc3ccc(-c4cccc(S(C)(=O)=O)c4)nc23)CC1 [Example 189, N-(4-(1H-1,2,4-triazol-1-yl)benzyl)-4-(1-methylcyclo-propoxy)-6-(3-(methylsulfonyl)phenyl)pyrido[3,2-d]pyrimidin-2-amine] | < 100 | 1000 to 10000 | 
15 | Nc1ccc(-c2ccc3nc(NCc4cccc(-n5cncn5)c4)nc(NC4(C(F)(F)F)CC4)c3n2)cn1 [Example 73, N^2-(3-(1H-1,2,4-triazol-1-yl)benzyl)-6-(6-aminopyridin-3-yl)-N^4-(1-(trifluoromethyl)cyclopropyl)pyrido[3,2-d] pyrimidine-2,4-diamine] | < 100 | 1000 to 10000 | 
16 | C#Cc1ccc2nc(N[C@H](C)c3ccc(S(N)(=O)=O)cc3)nc(OC(C)C)c2n1 [Example 306, (R)-4-(1-(6-ethynyl-4-isopropoxypyrido[3,2-d]pyrimidin-2-ylamino)ethyl) benzenesulfonamide] | 250 to 2000 | < 1000 | 
17 | NS(=O)(=O)c1cc(F)cc(CNc2nc(NC3(C(F)(F)F)CC3)c3nc(-c4ccc(F)cc4)ccc3n2)c1 [Example 115, 3-fluoro-5-((6-(4-fluorophenyl)-4-(1-(trifluoromethyl)cyclopropyl-amino)pyrido[3,2-d]pyrimidin-2-ylamino)methyl)benzene-sulfonamide] | < 100 | 1000 to 10000 | 
18 | C[C@@H](Nc1nc(NC2(C(F)(F)F)CCCC2)c2nc(-c3ccc(F)cc3)ccc2n1)c1ccc(S(N)(=O)=O)cc1 [Example 71, (R)-4-(1-(6-(4-fluorophenyl)-4-(1-(trifluoromethyl)cyclo-pentylamino)pyrido[3,2-d]pyrimidin-2-ylamino)ethyl) benzenesulfonamide] | 250 to 2000 | > 10000 | 
19 | CS(=O)(=O)c1cc(-c2ccc3nc(NCc4ccc(S(N)(=O)=O)cc4)nc(NCC(F)(F)F)c3n2)ccc1OC(F)F [Example 164, 4-((6-(4-(difluoromethoxy)-3-(methylsulfonyl)phenyl)-4-(2,2,2-trifluoroethylamino)pyrido[3,2-d]pyrimidin-2-ylamino)methyl)benzene-sulfonamide] | < 100 | > 10000 | 
20 | COc1ccc(-c2ccc3nc(NCc4ccc(S(N)(=O)=O)cc4)nc(NCC(F)(F)F)c3n2)cc1S(=O)(=O)N1CCOCC1 [Example 227, 4-((6-(4-methoxy-3-(morpholinosulfonyl)phenyl)-4-(2,2,2-trifluoroethylamino)pyrido[3,2-d]pyrimidin-2-ylamino)methyl)benzene-sulfonamide] | < 100 | 1000 to 10000 | 
